Test results reported in the kinase profiling compilation of Christmann-Franck et al. (2016).

Legend:
Assay in all cases: KINOMEscan competition binding
Settings in all cases: compound 10.0 µM
PRPF4B (human) = PRPF4B (human) (UniProt Q13523)
IGF1R (human) = IGF1R (human) (UniProt P08069)
ERBB4 (human) = ERBB4 (human) (UniProt Q15303)
PAK2 (human) = PAK2 (human) (UniProt Q13177)
CDK7 (human) = CDK7 (human) (UniProt P50613)
EPHB2 (human) = EPHB2 (human) (UniProt P29323)
CSNK1E (human) = CSNK1E (human) (UniProt P49674)
INSRR (human) = INSRR (human) (UniProt P14616)
PIK3CB (human) = PIK3CB (human) (UniProt P42338)
LYN (human) = LYN (human) (UniProt P07948)
FGFR3 (human) = FGFR3 (human) (UniProt P22607)
OXSR1 (human) = OXSR1 (human) (UniProt O95747)
ACVR2B (human) = ACVR2B (human) (UniProt Q13705)
DAPK2 (human) = DAPK2 (human) (UniProt Q9UIK4)
CSNK1G3 (human) = CSNK1G3 (human) (UniProt Q9Y6M4)
AXL (human) = AXL (human) (UniProt P30530)
MARK2 (human) = MARK2 (human) (UniProt Q7KZI7)
VRK2 (human) = VRK2 (human) (UniProt Q86Y07)
MAPK11 (human) = MAPK11 (human) (UniProt Q15759)
RET (human) = RET (human) (UniProt P07949)
TLK2 (human) = TLK2 (human) (UniProt Q86UE8)
EPHA8 (human) = EPHA8 (human) (UniProt P29322)
TESK1 (human) = TESK1 (human) (UniProt Q15569)
MERTK (human) = MERTK (human) (UniProt Q12866)
CSNK1G1 (human) = CSNK1G1 (human) (UniProt Q9HCP0)
ERBB2 (human) = ERBB2 (human) (UniProt P04626)
PIK3C2B (human) = PIK3C2B (human) (UniProt O00750)
CDC42BPA (human) = CDC42BPA (human) (UniProt Q5VT25)
CDKL2 (human) = CDKL2 (human) (UniProt Q92772)
FER (human) = FER (human) (UniProt P16591)
CSNK1D (human) = CSNK1D (human) (UniProt P48730)
MINK1 (human) = MINK1 (human) (UniProt Q8N4C8)
DYRK2 (human) = DYRK2 (human) (UniProt Q92630)
MAP3K11 (human) = MAP3K11 (human) (UniProt Q16584)
RIOK2 (human) = RIOK2 (human) (UniProt Q9BVS4)
NLK (human) = NLK (human) (UniProt Q9UBE8)
CASK (human) = CASK (human) (UniProt O14936)
CDK14 (human) = CDK14 (human) (UniProt O94921)
STK33 (human) = STK33 (human) (UniProt Q9BYT3)
PRKAA1 (human) = PRKAA1 (human) (UniProt Q13131)

Sequence of FGFR3 (human) (P22607 whole entry, looked up): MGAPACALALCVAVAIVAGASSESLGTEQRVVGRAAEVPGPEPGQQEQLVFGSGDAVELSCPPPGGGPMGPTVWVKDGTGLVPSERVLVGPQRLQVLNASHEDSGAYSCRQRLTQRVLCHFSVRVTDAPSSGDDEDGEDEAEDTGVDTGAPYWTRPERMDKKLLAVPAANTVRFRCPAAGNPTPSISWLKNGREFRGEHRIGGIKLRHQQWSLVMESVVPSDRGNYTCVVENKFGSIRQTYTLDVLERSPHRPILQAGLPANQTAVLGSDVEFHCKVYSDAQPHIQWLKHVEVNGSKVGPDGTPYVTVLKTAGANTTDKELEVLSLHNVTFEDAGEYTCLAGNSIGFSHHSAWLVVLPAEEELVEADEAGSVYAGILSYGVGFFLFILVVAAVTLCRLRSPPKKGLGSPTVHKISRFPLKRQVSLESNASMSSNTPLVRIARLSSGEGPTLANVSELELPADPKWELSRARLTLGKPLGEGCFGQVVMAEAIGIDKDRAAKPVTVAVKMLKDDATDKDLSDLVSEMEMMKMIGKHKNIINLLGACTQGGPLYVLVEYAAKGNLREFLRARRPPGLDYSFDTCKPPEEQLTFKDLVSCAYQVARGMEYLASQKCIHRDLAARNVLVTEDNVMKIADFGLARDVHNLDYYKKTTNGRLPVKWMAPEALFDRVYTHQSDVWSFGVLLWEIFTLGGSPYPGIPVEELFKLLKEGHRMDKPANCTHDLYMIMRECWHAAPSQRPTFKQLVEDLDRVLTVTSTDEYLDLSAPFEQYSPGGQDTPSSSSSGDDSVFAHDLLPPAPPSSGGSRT
Sequence of EPHA8 (human) (P29322 whole entry, looked up): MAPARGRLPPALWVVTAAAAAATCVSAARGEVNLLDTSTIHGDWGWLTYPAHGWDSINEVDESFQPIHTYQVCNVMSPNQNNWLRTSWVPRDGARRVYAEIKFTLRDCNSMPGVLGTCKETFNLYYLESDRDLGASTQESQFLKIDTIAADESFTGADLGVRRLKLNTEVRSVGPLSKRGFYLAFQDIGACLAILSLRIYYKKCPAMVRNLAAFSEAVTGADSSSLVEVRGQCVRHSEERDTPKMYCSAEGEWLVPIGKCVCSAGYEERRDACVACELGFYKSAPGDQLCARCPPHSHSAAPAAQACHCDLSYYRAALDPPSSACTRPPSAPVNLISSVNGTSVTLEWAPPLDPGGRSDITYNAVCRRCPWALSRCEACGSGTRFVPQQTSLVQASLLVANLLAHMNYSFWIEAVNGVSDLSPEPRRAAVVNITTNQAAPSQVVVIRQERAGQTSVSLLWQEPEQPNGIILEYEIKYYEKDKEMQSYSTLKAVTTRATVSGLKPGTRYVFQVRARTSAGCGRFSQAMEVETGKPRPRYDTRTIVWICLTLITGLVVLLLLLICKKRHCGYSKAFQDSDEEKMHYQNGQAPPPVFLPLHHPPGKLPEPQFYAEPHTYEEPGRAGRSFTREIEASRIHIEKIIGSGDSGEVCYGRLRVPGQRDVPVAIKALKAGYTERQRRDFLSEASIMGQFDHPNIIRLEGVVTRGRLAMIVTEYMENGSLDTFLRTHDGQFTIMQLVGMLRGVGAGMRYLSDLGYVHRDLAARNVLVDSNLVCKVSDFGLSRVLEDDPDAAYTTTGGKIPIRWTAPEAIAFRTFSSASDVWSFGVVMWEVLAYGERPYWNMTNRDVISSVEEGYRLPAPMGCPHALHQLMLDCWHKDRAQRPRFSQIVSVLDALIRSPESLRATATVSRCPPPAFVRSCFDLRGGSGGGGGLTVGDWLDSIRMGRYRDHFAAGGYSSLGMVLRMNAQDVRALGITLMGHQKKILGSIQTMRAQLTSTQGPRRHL
Sequence of PIK3C2B (human) (O00750 whole entry, looked up): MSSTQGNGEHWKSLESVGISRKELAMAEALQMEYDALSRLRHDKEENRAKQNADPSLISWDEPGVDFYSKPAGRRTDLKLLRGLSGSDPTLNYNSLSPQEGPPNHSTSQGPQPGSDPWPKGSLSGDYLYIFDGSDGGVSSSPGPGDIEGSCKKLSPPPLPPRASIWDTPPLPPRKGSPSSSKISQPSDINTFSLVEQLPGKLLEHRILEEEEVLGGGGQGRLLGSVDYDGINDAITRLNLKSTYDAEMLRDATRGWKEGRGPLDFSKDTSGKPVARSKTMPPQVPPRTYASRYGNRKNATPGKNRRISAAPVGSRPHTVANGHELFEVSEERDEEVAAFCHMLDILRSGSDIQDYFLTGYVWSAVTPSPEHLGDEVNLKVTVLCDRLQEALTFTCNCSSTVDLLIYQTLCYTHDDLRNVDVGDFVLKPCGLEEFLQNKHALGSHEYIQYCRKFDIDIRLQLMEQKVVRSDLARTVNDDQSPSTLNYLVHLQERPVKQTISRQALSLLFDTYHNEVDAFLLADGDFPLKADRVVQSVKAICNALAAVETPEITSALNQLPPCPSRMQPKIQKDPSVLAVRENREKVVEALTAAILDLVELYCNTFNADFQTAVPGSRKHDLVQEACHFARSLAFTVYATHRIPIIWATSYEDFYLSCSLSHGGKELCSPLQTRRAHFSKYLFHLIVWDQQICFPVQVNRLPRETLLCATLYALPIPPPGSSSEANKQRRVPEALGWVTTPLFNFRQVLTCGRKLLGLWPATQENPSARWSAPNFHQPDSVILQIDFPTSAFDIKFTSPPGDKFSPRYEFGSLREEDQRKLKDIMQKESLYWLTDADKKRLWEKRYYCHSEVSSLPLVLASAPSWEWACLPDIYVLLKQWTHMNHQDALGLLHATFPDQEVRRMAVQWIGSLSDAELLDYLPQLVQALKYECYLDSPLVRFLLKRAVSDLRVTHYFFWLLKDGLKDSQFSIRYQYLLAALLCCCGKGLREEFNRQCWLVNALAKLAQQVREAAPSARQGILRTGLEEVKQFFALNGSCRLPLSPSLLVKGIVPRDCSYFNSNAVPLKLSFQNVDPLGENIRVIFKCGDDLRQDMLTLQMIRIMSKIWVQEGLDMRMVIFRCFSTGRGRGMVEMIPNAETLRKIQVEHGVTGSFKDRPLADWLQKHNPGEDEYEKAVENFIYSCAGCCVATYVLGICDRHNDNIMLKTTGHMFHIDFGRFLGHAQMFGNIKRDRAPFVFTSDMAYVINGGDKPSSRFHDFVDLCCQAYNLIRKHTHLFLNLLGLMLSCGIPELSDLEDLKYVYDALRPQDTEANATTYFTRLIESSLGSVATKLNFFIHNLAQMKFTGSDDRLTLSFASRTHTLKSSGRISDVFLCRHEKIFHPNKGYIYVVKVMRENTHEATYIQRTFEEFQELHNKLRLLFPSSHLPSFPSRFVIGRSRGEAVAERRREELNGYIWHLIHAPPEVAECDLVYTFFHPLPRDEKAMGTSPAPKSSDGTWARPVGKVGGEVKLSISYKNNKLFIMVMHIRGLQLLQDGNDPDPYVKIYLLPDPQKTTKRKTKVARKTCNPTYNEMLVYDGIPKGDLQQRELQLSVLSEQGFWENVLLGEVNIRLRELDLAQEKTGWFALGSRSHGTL
Sequence of PIK3CB (human) (P42338 whole entry, looked up): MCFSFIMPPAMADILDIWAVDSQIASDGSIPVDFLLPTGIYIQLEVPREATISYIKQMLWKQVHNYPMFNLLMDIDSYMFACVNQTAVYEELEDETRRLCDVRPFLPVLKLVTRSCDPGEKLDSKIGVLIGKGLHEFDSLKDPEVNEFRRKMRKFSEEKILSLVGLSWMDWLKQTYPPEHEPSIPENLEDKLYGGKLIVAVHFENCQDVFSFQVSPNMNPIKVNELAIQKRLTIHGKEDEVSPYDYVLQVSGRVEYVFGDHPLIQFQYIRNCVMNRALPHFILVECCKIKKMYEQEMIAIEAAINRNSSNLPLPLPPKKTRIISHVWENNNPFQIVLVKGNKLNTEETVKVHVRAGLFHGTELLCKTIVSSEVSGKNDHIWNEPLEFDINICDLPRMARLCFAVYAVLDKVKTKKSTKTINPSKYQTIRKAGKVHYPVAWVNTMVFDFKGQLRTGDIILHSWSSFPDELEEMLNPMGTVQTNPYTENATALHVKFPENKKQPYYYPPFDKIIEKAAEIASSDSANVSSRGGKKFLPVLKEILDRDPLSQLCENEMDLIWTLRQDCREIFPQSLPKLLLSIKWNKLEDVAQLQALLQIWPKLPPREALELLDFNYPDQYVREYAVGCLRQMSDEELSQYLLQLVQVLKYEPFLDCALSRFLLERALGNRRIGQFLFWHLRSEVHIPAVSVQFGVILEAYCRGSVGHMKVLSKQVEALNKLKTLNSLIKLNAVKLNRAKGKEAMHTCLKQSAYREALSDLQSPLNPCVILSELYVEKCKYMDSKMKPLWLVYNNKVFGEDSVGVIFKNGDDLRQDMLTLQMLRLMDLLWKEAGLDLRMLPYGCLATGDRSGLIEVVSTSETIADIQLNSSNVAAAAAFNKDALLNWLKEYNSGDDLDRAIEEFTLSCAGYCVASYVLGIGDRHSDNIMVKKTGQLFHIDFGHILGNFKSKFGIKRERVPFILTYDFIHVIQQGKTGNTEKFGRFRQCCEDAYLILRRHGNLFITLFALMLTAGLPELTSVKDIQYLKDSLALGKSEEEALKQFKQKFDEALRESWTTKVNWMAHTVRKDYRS
Sequence of OXSR1 (human) (O95747 whole entry, looked up): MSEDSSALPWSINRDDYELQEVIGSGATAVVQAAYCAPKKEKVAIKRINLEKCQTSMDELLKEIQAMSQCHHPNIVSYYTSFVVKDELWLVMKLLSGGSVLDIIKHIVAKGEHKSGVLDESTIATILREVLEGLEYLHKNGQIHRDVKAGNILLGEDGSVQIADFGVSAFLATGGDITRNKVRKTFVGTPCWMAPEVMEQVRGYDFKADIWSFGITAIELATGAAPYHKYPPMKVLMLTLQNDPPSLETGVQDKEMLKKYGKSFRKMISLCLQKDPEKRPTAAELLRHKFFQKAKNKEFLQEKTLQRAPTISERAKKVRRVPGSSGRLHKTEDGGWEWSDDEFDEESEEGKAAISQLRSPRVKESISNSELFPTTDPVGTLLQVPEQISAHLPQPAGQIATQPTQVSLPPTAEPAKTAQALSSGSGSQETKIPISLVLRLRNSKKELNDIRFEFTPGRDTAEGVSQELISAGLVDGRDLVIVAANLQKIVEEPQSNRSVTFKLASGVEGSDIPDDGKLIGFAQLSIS

Row | Compound | kinase still bound, per cent of control (PRPF4B (human)) [%] | kinase still bound, per cent of control (IGF1R (human)) [%] | kinase still bound, per cent of control (ERBB4 (human)) [%] | kinase still bound, per cent of control (PAK2 (human)) [%] | kinase still bound, per cent of control (CDK7 (human)) [%] | kinase still bound, per cent of control (EPHB2 (human)) [%] | kinase still bound, per cent of control (CSNK1E (human)) [%] | kinase still bound, per cent of control (INSRR (human)) [%] | kinase still bound, per cent of control (PIK3CB (human)) [%] | kinase still bound, per cent of control (LYN (human)) [%] | kinase still bound, per cent of control (FGFR3 (human)) [%] | kinase still bound, per cent of control (OXSR1 (human)) [%] | kinase still bound, per cent of control (ACVR2B (human)) [%] | kinase still bound, per cent of control (DAPK2 (human)) [%] | kinase still bound, per cent of control (CSNK1G3 (human)) [%] | kinase still bound, per cent of control (AXL (human)) [%] | kinase still bound, per cent of control (MARK2 (human)) [%] | kinase still bound, per cent of control (VRK2 (human)) [%] | kinase still bound, per cent of control (MAPK11 (human)) [%] | kinase still bound, per cent of control (RET (human)) [%] | also measured
1 | COc1cc2ncnc(-n3nc(-c4ccccn4)nc3N)c2cc1OC | 93 | 100 | 59 | 37 | 5.4 | 47 | 1.6 | 100 | 5 | 48 | 84 | 42 | 49 | 12 | 20 | 6 | 53 | 9.8 | 8.2 | 20 | kinase still bound, per cent of control (TLK2 (human)): 40%; kinase still bound, per cent of control (EPHA8 (human)): 59%; kinase still bound, per cent of control (TESK1 (human)): 100%; kinase still bound, per cent of control (MERTK (human)): 29%; kinase still bound, per cent of control (CSNK1G1 (human)): 33%; kinase still bound, per cent of control (ERBB2 (human)): 93%; kinase still bound, per cent of control (PIK3C2B (human)): 0.35%; kinase still bound, per cent of control (CDC42BPA (human)): 99%; kinase still bound, per cent of control (CDKL2 (human)): 2%; kinase still bound, per cent of control (FER (human)): 93%; kinase still bound, per cent of control (CSNK1D (human)): 2.8%; kinase still bound, per cent of control (MINK1 (human)): 40%; kinase still bound, per cent of control (DYRK2 (human)): 0.25%; kinase still bound, per cent of control (MAP3K11 (human)): 63%; kinase still bound, per cent of control (RIOK2 (human)): 2%; kinase still bound, per cent of control (NLK (human)): 6.6%; kinase still bound, per cent of control (CASK (human)): 26%; kinase still bound, per cent of control (CDK14 (human)): 62%; kinase still bound, per cent of control (STK33 (human)): 6.4%; kinase still bound, per cent of control (PRKAA1 (human)): 19%
2 | O=C(Nc1cccc(Nc2ncc(Br)c(NCCc3cnc[nH]3)n2)c1)N1CCCC1 | 5.3 | 17 | 56 | 45 | 0.55 | 100 | 70 | 4.8 | 100 | 24 | 1 | 25 | 4.9 | 22 | 88 | 1.2 | 0.4 | 12 | 90 | 0.1 | kinase still bound, per cent of control (TLK2 (human)): 56%; kinase still bound, per cent of control (EPHA8 (human)): 94%; kinase still bound, per cent of control (TESK1 (human)): 99%; kinase still bound, per cent of control (MERTK (human)): 0.5%; kinase still bound, per cent of control (CSNK1G1 (human)): 54%; kinase still bound, per cent of control (ERBB2 (human)): 88%; kinase still bound, per cent of control (PIK3C2B (human)): 89%; kinase still bound, per cent of control (CDC42BPA (human)): 95%; kinase still bound, per cent of control (CDKL2 (human)): 4.7%; kinase still bound, per cent of control (FER (human)): 47%; kinase still bound, per cent of control (CSNK1D (human)): 73%; kinase still bound, per cent of control (MINK1 (human)): 4.2%; kinase still bound, per cent of control (DYRK2 (human)): 3.4%; kinase still bound, per cent of control (MAP3K11 (human)): 0.75%; kinase still bound, per cent of control (RIOK2 (human)): 36%; kinase still bound, per cent of control (NLK (human)): 100%; kinase still bound, per cent of control (CASK (human)): 67%; kinase still bound, per cent of control (CDK14 (human)): 44%; kinase still bound, per cent of control (STK33 (human)): 0.8%; kinase still bound, per cent of control (PRKAA1 (human)): 0.35%
